According to patent EP2444396A1, “PHOTOPROTECTIVE COMPOSITION” (Apoteknos Para La Piel, S.L., priority 2009, dated 2010):
Several values for one entry are separate records, joined by “and”; a condition that tells them apart may be missing. Equal values may be shown once.

Tests used:
[1] = tested on: Erythema induced by UVB radiation in mouse; assay: Photoprotection: erythema induced by UVB radiation in mouse skin; type: in vivo; parameters: key to Erythema induced by UVB radiation in mouse: presence (+); absence (-); conditions: individual animals No. 1-10; 0.5% gel topical, about 2.5 kJ/m^2 UVB, 24 hours after exposure
Text: The effect of p-nitrolophine and m-nitrolophine on erythema due to exposing the mouse skin to an irradiation source at maximum in the UVB region has been studied in these assays. The results obtained have been compared with the effect of 4-methylbenzylidene camphor (P5000) a substance considered as a UVB solar filter and with the effect of butyl methoxydibenzoylmethane (P1789) an UVA type filter, both products being commonly used in antisolar cosmetics.
35 male mice weighing more than 20 grams have been used. After receiving them, the animals were acclimated for 7 days at the place where the assays were preformed, they were being placed in a cage with controlled temperature (22°C), with relative humidity between 50% and 75%, replacing fresh filtered air approximately 10 times per hour and with 12 h light/dark cycles (7.00 - 19.00 light and from 19.00 to 7.00 dark). For this period and during the experimental period, the animals were fed ad libitum with standard diet for rodents and running water as drink.
The animals were randomly distributed into 4 experimental groups according to Table 7. The products to be tested were directly used, applying them in the form of a gel on an area of the skin such that each animal form its own control.
The test was performed following the method described by Winder et al. ["A study of Pharmacological influences on ultraviolet erythema in guinea pigs". Arch. Int Pharmacodyn, 116:261-292; 1958] and by other authors [Wendy et al. "The local antinociceptive and topical antiinflamatory effects of propyl gallate in rodents". Br. J. Pharmacol, 58:573 -581; 1976; Katiyar et al. "Protective Effects of Silymarin Against Photocarcinogenesis in a Mouse Skin Model". J Natl Cancer Inst 89:556-65; 1997] with slight modifications. The day […] the assay, as much hair as possible were removed from the animals by applying a layer of commercial hair-removing cream to remove all the trace of hair and to leave the skin of the back completely bare. The rest of the hair-removing cream were removed by means of washing and rinsing with running water and the animals were the returned to their corresponding cages where they remained until the following day.
On the day of the assay, the substances to be assayed were blindly applied on the back of the previously labelled animals following a random pattern (randomized). After applying the corresponding treatments, the animals were placed and pinned to the presentation platform of the equipment. The animals were then placed 8 cm from an ultraviolet light source of 4*40w with 313 nm of fundamental emission and a range comprised approximately between 290 and 350 nm and with an anti-UVC filter. The emission spectrum of said light source is depicted in Figure 1.
The exposure was maintained until all the animals have received an approximate total dose of 2.5 kJ/m^2. The dose of irradiation applied was determined by means of a ultraviolet light detector, the response curve of which is shown in Figure 2.
Twenty four hours after ending the exposure, the back of the animals was photographed and they were returned to their cages. The evaluation of erythema was performed by means of a positive/negative criterion, the percentage of protected animals being obtained. The statistic significance of the difference was evaluated by means of the non-parametric Fisher Test.

[2] = Photostability evaluation (irradiation in MeOH, TLC analysis); type: physicochemical; conditions: MeOH, irradiated for 2 hours, 450W lamp; approximate estimation of the total sum of photoproducts
Protocol: All the irradiations preformed in the photostability studies were carried out in an ACE 7840 photoreactor using a 450W power ACE 7825 lamp.
The solvent used in the photostability test was methanol [MeOH] (ppa) (250 mL), using a concentration of […] of p-nitrolophine. The solution was irradiated for 2 hours, samples being taken at 10 minutes, 20 minutes, 1 hour and 2 hours, and being dried in a rotating evaporator. Each sample was analyzed by thin layer chromatography (TLC in Silica gel) using petroleum ether:ethyl acetate (4:1) as eluent. The chromatography plates were viewed under a 254 nm lamp and a 366 nm lamp, as well as by means of simultaneous viewing under both lamps (254 and 366 nm).
Specifically, three photoproducts (three blots) could be determined, which were isolated by preparative TLC.
A saturated solution of m-nitrolophine in MeOH was prepared to perform the study since the solubility in this solvent is low (approximately 0.2 mg/mL). Briefly, an amount of m-nitrolophine sufficient to ensure the saturation in 200 mL of MeOH throughout the night was left stirring. The solution was filtered and irradiated for 2 hours, samples of 10 mL being taken at 10 minutes, 20 minutes, 1 hour and 2 hours, and being dried in rotating evaporator. […]

[3] = Specific molar absorptivity of p-nitrolophine in MeOH at 379 nm; type: physicochemical
Protocol: As a preliminary step, in the case of p-nitrolophine the specific molar absorptivity of the molecule (ε) (A^11) was determined. To that end, 50.4 mg of p-nitrolophine were weight, they were dissolved in 100.0 mL of MeOH (ppa); 4 dilutions were then performed by taking 1.0, 2.0, 5.0 and 10.0 mL from this mother liquor and topping up each of them to a volume of 100.0 ml with MeOH (ppa). […]
The slope of the straight line obtained from these points (Y= 16.717x + 0.03; R2 = 0.9993) therefore coincides with the value of specific molar absorptivity of p-nitrolophine at 379 nm ε(379nm) = 16.717 A.U.L/mol [formula]

[4] = UV spectrum: wavelengths of maximum absorption and absorbance (Cecil 2021 UV-Visible Spectrophotometer); type: physicochemical

O=[N+]([O-])c1ccc(-c2nc(-c3ccccc3)c(-c3ccccc3)[nH]2)cc1 [p-nitrolophine, 2-(4-nitrophenyl)-4,5-diphenyl-1H-imidazole]
Erythema induced by UVB radiation in mouse [1]: -
degradation [2]: lower than 5%
specific molar absorptivity ε(379nm) ([3]; 379 nm, slope of the straight line): 16.717 A.U.L/mol
Abs. at 379 nm (A.U.) ([3]; Concentration (mol) 0.0000147): 0.2572 A.U.
Abs. at 379 nm (A.U.) ([3]; Concentration (mol) 0.00002953): 0.5214 A.U.
Abs. at 379 nm (A.U.) ([3]; Concentration (mol) 0.00007382): 1.301 A.U.
Abs. at 379 nm (A.U.) ([3]; Concentration (mol) 0.00014764): 2.4819 A.U.
UV spectrum A (a.u) ([4]; absorbance at the maximum of the same line): 0.715 a.u and 0.669 a.u and 0.774 a.u
UV spectrum λ (nm) ([4]; wavelengths of the maximum absorption): 221.0 nm and 255.0 nm and 379.0 nm
